The values below come from patent publication US20230257372A1 (CHONG KUN DANG PHARMACEUTICAL CORP., priority 2020, published 2023).

In assay [1] the target is T1, human recombinant HDAC6 (Homo sapiens, UniProt Q9UBN7).
T1 construct: purchased Calbiochem Inc. 382180
T1 sequence (Q9UBN7 1-1215): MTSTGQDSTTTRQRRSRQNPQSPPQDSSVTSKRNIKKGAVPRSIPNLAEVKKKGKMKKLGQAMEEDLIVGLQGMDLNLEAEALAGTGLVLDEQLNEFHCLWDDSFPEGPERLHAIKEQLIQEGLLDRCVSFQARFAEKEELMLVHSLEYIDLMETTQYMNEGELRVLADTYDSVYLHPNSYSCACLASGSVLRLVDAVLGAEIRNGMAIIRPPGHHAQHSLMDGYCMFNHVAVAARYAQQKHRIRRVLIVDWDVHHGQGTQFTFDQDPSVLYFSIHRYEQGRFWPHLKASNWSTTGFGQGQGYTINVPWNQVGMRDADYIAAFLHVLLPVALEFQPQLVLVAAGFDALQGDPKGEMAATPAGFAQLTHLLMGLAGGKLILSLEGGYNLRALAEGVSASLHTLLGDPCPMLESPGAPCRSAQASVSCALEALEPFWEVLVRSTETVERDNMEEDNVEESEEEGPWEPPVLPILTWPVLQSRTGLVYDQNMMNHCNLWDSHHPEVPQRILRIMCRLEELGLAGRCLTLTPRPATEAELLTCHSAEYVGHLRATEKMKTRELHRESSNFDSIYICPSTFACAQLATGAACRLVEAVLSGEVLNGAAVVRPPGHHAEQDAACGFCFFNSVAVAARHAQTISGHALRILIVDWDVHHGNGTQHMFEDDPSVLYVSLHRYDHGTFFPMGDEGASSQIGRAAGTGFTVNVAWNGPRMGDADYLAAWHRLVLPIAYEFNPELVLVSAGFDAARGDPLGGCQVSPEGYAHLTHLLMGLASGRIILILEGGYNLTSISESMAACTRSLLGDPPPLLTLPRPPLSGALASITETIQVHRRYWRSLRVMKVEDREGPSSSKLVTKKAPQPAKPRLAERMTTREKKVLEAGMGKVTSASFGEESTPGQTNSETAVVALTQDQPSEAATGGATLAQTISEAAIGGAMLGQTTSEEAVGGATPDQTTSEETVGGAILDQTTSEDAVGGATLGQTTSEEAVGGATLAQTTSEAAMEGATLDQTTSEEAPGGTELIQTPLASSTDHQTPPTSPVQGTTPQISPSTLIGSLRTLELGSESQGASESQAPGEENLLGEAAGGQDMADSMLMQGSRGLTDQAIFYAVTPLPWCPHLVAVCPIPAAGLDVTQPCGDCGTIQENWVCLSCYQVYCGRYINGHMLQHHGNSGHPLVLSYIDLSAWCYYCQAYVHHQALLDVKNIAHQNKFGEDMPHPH
As to the kind of experiment: HDAC6 enzyme activity inhibition (HDAC Fluorimetric Drug Discovery Kit). Format: biochemical. As to conditions: for HDAC6 selectivity (fold): HDAC1 IC50 / HDAC6 IC50; for IC50: human recombinant HDAC6, IC50 calculated with GraphPad Prism. Summed up: (§1)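 Enzyme at 0.3 µg per well was reacted with 10 μM fluorogenic substrate in presence of 5-fold diluted compound, 30° C for 60 min.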

Assay [2] has as its target T2, human recombinant HDAC1 (Homo sapiens, UniProt Q13547).
T2 construct: purchased Enzo Life Science, Inc. BML-SE456
As to the kind of experiment: HDAC1 enzyme activity inhibition (HDAC Fluorimetric Drug Discovery Kit). It is filed as biochemical. Particulars: human recombinant HDAC1; IC50 calculated with GraphPad Prism; read-out: HDAC1. In a few lines:
as §1

Structures are written as SMILES. Where only a bound is given, the exact number is not on record here.

T2 sequence (Q13547 whole entry): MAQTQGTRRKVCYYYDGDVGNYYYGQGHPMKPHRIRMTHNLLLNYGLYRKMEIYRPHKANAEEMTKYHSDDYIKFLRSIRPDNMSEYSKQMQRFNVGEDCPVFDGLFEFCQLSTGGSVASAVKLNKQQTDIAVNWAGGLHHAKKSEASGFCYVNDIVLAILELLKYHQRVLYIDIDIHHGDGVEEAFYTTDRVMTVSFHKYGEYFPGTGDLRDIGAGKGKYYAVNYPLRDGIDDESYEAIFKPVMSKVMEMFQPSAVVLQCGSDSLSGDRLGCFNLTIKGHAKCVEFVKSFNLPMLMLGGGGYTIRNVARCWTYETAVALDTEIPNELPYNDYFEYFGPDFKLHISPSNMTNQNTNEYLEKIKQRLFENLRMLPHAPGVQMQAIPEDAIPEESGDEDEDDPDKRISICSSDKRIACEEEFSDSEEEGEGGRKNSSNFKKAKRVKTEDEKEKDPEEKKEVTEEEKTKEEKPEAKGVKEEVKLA

Consider `CN(C)Cc1cccc(-c2cn(Cc3ccc(-c4nnc(C(F)F)o4)cn3)nn2)c1` [Compound 3915, 1-(3-(1-((5-(5-(difluoromethyl)-1,3,4-oxadiazol-2-yl)pyridin-2-yl)methyl)-1H-1,2,3-triazol-4-yl)phenyl)-N,N-dimethylmethanamine], for which the “HDAC6 selectivity (fold)” value in assay [1] is reported as 1308 fold. In addition, the IC50 is 38.2 nM in assay [1] and above 50000 nM in assay [2].
Turning to `CN1CCN(Cc2cccc(-c3cn(Cc4ccc(-c5nnc(C(F)F)o5)cn4)nn3)c2)CC1` [Compound 3917, 2-(difluoromethyl)-5-(6-((4-(3-((4-methylpiperazin-1-yl)methyl)phenyl)-1H-1,2,3-triazol-1-yl)methyl)pyridin-3-yl)-1,3,4-oxadiazole], in assay [1], the “HDAC6 selectivity (fold)” value was 1524 fold and the IC50 was 32.8 nM. Besides, the IC50 in assay [2] is above 50000 nM.
Take `CN(C)CCN(C)Cc1cccc(-c2cn(Cc3ccc(-c4nnc(C(F)F)o4)cn3)nn2)c1` [Compound 3918, N1-(3-(1-((5-(5-(difluoromethyl)-1,3,4-oxadiazol-2-yl)pyridin-2-yl)methyl)-1H-1,2,3-triazol-4-yl)benzyl)-N1,N2,N2-trimethylethane-1,2-diamine]: the “HDAC6 selectivity (fold)” value in assay [1] is 1190 fold. Further, the IC50 is 42 nM in assay [1] and above 50000 nM in assay [2].
On the same counts, the results for `CNCc1cccc(-c2cn(Cc3ccc(-c4nnc(C(F)F)o4)cn3)nn2)c1` [Compound 3919, 1-(3-(1-((5-(5-(difluoromethyl)-1,3,4-oxadiazol-2-yl)pyridin-2-yl)methyl)-1H-1,2,3-triazol-4-yl)phenyl)-N-methylmethanamine] are 1358 fold, 36.8 nM and above 50000 nM.
For `CC(C)(C)OC(=O)N1CC(c2cn(Cc3ccc(-c4nnc(C(F)F)o4)cn3)nn2)C1` [Compound 3926, Tert-butyl 3-(1-((5-(5-(difluoromethyl)-1,3,4-oxadiazol-2-yl)pyridin-2-yl)methyl)-1H-1,2,3-triazol-4-yl)azetidin-1-carboxylate] the same measures were 308 fold, 162 nM and above 50000 nM.
On the same counts, the results for `Cc1nc(-c2ccccc2)cn1Cc1ccc(-c2nnc(C(F)F)o2)cn1` [Compound 3945, 2-(difluoromethyl)-5-(6-((2-methyl-4-phenyl-1H-imidazol-1-yl)methyl)pyridin-3-yl)-1,3,4-oxadiazole] are 258 fold, 193 nM and above 50000 nM.
With `FC(F)c1nnc(-c2ccc(Cn3cnc(Br)c3)nc2)o1` [Compound 3949, 2-(6-((4-bromo-1H-imidazol-1-yl)methyl)pyridin-3-yl)-5-(difluoromethyl)-1,3,4-oxadiazole], in assay [1], the “HDAC6 selectivity (fold)” value was 445 fold and the IC50 was 112 nM. In addition, the IC50 in assay [2] was above 50000 nM.
For the compound `FC(F)c1nnc(-c2ccc(Cn3cnc(-c4ccccc4)c3)nc2)o1` [Compound 3950, 2-(difluoromethyl)-5-(6-((4-phenyl-1H-imidazol-1-yl)methyl)pyridin-3-yl)-1,3,4-oxadiazole], in assay [1], the “HDAC6 selectivity (fold)” value came out at 954 fold and the IC50 is 52.4 nM. In addition, the IC50 in assay [2] is above 50000 nM.
Regarding `CCN1CC(c2cn(Cc3ccc(-c4nnc(C(F)F)o4)cn3)nn2)C1` [Compound 3951, 2-(difluoromethyl)-5-(6-((4-(1-ethylazetidin-3-yl)-1H-1,2,3-triazol-1-yl)methyl)pyridin-3-yl)-1,3,4-oxadiazole], the “HDAC6 selectivity (fold)” value in assay [1] is 81 fold. The IC50 in assay [1] was 613 nM; in assay [2] it was above 50000 nM.
In the case of `CC(C)N1CC(c2cn(Cc3ccc(-c4nnc(C(F)F)o4)cn3)nn2)C1` [Compound 3952, 2-(difluoromethyl)-5-(6-((4-(1-isopropylazetidin-3-yl)-1H-1,2,3-triazol-1-yl)methyl)pyridin-3-yl)-1,3,4-oxadiazole], in assay [1], the “HDAC6 selectivity (fold)” value came out at 76 fold. Moreover, the IC50 in assay [1] was 653 nM; in assay [2] it was above 50000 nM.
`CCCCN1CC(c2cn(Cc3ccc(-c4nnc(C(F)F)o4)cn3)nn2)C1` [Compound 3953, 2-(6-((4-(1-butylazetidin-3-yl)-1H-1,2,3-triazol-1-yl)methyl)pyridin-3-yl)-5-(difluoromethyl)-1,3,4-oxadiazole]: the “HDAC6 selectivity (fold)” value in assay [1] was 100 fold. The IC50 is 498 nM in assay [1] and above 50000 nM in assay [2].
For `FC(F)c1nnc(-c2ccc(Cn3cc(C4CN(C5CCC5)C4)nn3)nc2)o1` [Compound 3954, 2-(6-((4-(1-cyclobutylazetidin-3-yl)-1H-1,2,3-triazol-1-yl)methyl)pyridin-3-yl)-5-(difluoromethyl)-1,3,4-oxadiazole] the same measures were 116 fold, 429 nM and above 50000 nM.
For `FC(F)c1nnc(-c2ccc(Cn3cc(C4CN(C5COC5)C4)nn3)nc2)o1` [Compound 3955, 2-(difluoromethyl)-5-(6-((4-(1-(oxetan-3-yl)azetidin-3-yl)-1H-1,2,3-triazol-1-yl)methyl)pyridin-3-yl)-1,3,4-oxadiazole] the same measures were 95 fold, 522 nM and above 50000 nM.
For `CC(=O)N1CC(c2cn(Cc3ccc(-c4nnc(C(F)F)o4)cn3)nn2)C1` [Compound 3956, 1-(3-(1-((5-(5-(difluoromethyl)-1,3,4-oxadiazol-2-yl)pyridin-2-yl)methyl)-1H-1,2,3-triazol-4-yl)azetidin-1-yl)ethan-1-one] the same measures were 93 fold, 536 nM and above 50000 nM.
On to `CCC(=O)N1CC(c2cn(Cc3ccc(-c4nnc(C(F)F)o4)cn3)nn2)C1` [Compound 3957, 1-(3-(1-((5-(5-(difluoromethyl)-1,3,4-oxadiazol-2-yl)pyridin-2-yl)methyl)-1H-1,2,3-triazol-4-yl)azetidin-1-yl)propan-1-one], for which, in assay [1], the “HDAC6 selectivity (fold)” value was determined as 100 fold and the IC50 was 496 nM. For the same compound, the IC50 in assay [2] was above 50000 nM.
As to `CC(C)C(=O)N1CC(c2cn(Cc3ccc(-c4nnc(C(F)F)o4)cn3)nn2)C1` [Compound 3958, 1-(3-(1-((5-(5-(difluoromethyl)-1,3,4-oxadiazol-2-yl)pyridin-2-yl)methyl)-1H-1,2,3-triazol-4-yl)azetidin-1-yl)-2-methylpropan-1-one], in assay [1], the “HDAC6 selectivity (fold)” value worked out at 116 fold and the IC50 was 429 nM. In addition, the IC50 in assay [2] was above 50000 nM.
On the same counts, the results for `COC(=O)N1CC(c2cn(Cc3ccc(-c4nnc(C(F)F)o4)cn3)nn2)C1` [Compound 3959, Methyl 3-(1-((5-(5-(difluoromethyl)-1,3,4-oxadiazol-2-yl)pyridin-2-yl)methyl)-1H-1,2,3-triazol-4-yl)azetidin-1-carboxylate] are 209 fold, 239 nM and above 50000 nM.
`FC(F)c1nnc(-c2ccc(Cn3cc(-c4cncnc4)nn3)nc2)o1` [Compound 3960, 2-(difluoromethyl)-5-(6-((4-(pyrimidin-5-yl)-1H-1,2,3-triazol-1-yl)methyl)pyridin-3-yl)-1,3,4-oxadiazole]: in assay [1], the “HDAC6 selectivity (fold)” value is 473 fold and the IC50 was 105 nM. Further, the IC50 in assay [2] is above 50000 nM.
For `CC(C)(C)OC(=O)N1CCCC(c2cn(Cc3ccc(-c4nnc(C(F)F)o4)cn3)nn2)C1` (stereo not drawn) [Compound 3961, Tert-butyl 3-(1-((5-(5-(difluoromethyl)-1,3,4-oxadiazol-2-yl)pyridin-2-yl)methyl)-1H-1,2,3-triazol-4-yl)piperidin-1-carboxylate] the same measures were 386 fold, 129 nM and above 50000 nM.
